The results in this text go back to ChEMBL document CHEMBL1159024, “Inhibitory effect of tannic acid on gastric H+,K(+)-ATPase” (J Nat Prod, 1992).

Test [1] is described as follows: Inhibition of H(+)/K(+) ATPase from pig gastric mucosa. It is filed as tissue-based, Sus scrofa.
The species entered for test [2] is Sus scrofa. Nature of the test: Inhibition of H(+)/K(+) ATPase from pig gastric mucosa by competitive-double reciprocal plot in presence of ATP. It is filed as tissue-based.
The species named for test [3] is Sus scrofa. Kind of test: Inhibition of H(+)/K(+) ATPase from pig gastric mucosa by non competitive-double reciprocal plot in presence of K+. In kind it is tissue-based.
The nature of test [4]: Inhibition of K+ dependent pNPPase from pig gastric mucosa. In kind it is tissue-based, Sus scrofa.

Activity calls are given as the source filed them. The calls are words filed in the database; no cut-off is given here.

`O=c1oc2c(O)c(O)cc3c(=O)oc4c(O)c(O)cc1c4c23` [ELLAGIC ACID]: half-maximal inhibition in test [1] (IC50) required 210 nM. Also, the outcome in the test listed under Sus scrofa [2] and in the test filed under Sus scrofa [3] was Active.

As for `O=C(OC[C@H]1O[C@@H](OC(=O)c2cc(O)c(O)c(OC(=O)c3cc(O)c(O)c(O)c3)c2)[C@H](OC(=O)c2cc(O)c(O)c(OC(=O)c3cc(O)c(O)c(O)c3)c2)[C@@H](OC(=O)c2cc(O)c(O)c(OC(=O)c3cc(O)c(O)c(O)c3)c2)[C@@H]1OC(=O)c1cc(O)c(O)c(OC(=O)c2cc(O)c(O)c(O)c2)c1)c1cc(O)c(O)c(OC(=O)c2cc(O)c(O)c(O)c2)c1` [TANNIC ACID], the results for the half-maximal inhibitory concentration (IC50) in test [1] and in test [4] were 29 nM and 410 nM, respectively. For the same molecule, the result in the test filed under Sus scrofa [2] and in the test filed under Sus scrofa [3] was Active.
